Test results: patent US12054494B2, “Compound with anticancer activity” (KYOWA KIRIN CO., LTD., priority 2018, dated 2024)

Tested on: SU-DHL-4 cells
Assay: Inhibitory effect on cell viability (Cell Counting Kit-8)
Format: cell-based
Details: Homo sapiens, 72 hours culture with test compound, concentration showing 90% inhibition rate of cell viability
Description: Inhibitiory Effect on Cell Viability
SU-DHL-4 cells (Code No. ACC 495, Deutsche Sammlung von Mikroorganismen and Zellkulturen GmbH) were cultured at 37° C. using a carbon dioxide incubator (95% air, 5% CO2) in RPMI1640 medium (Code No. 11875-093, Thermo Fisher Scientific) in which inactivated fetal bovine serum (FBS: Code No. 10099-148, Thermo Fisher Scientific) in an amount to give a final concentration of 10 vol % and penicillin/streptomycin solution (PS: Code No. 15140-122, Thermo Fisher Scientific) in an amount to give a final concentration of 1 vol % were added. The cells were passaged twice a week at a volume of 20-40 mL so as to maintain a cell concentration of 1×10^6 cells/mL or less.
The cultured SU-DHL-4 cells were seeded at 2000 cells/well in a transparent 384-well plate (Code No. 781182, Greiner bio-one). After seeding, the cells were precultured at 37° C. in a carbon dioxide gas incubator for 18 to 25 hours. Next, 1, 0.1 or 0.01 mmol/L DMSO solution of the test compound was prepared and a 9-step dilution series were prepared so that the concentration will be 200 times the final concentration in the RPMI1640 medium containing the above FBS and PS, and 1/200 volume of the dilution series were added to each well. At this time, the final concentration of DMSO was adjusted to be 0.1 vol %. After adding the test compound, the cells were cultured at 37° C. in a carbon dioxide gas incubator for 72 hours. Next, 0.020 mL of Cell Counting Kit-8 (Code No. CK04, DOJINDO) solution diluted 2-fold or 4-fold with phosphate buffered saline (PBS) was added to each well. Color reaction was carried out in a carbon dioxide gas incubator at 37° C. for 2 to 3 hours, and the absorbance at a wavelength of 450 nm was measured using SpectraMax 340PC (Molecular Devices). The inhibition rate of cell viability was calculated by the following formula, and the concentration of the test compound (IC90 value) showing a 90% inhibition rate of cell viability was calculated. Inhibition rate of cell viability (%)=100−(A−B)/(C−B)×100 • A: Absorbance of a well containing test compound • B: Absorbance of a well without addition of cells • C: Absorbance of a well without addition of test compound

SMILES	IC90
CCC(=O)N1c2ccccc2[C@H](Nc2ccc(NC(=O)NCCNC(=O)c3ccc(N[C@@H]4C[C@H](C)N(C(=O)CC)c5ccccc54)cc3)cc2)C[C@@H]1C (relative stereo) [Compound 6l, 4-(((2S,4R)-2-Methyl-1-propionyl-1,2,3,4-tetrahydroquinolin-4-yl)amino)-N-(2-(3-(4-(((2S*,4R*)-2-methyl-1-propionyl-1,2,3,4-tetrahydroquinolin-4-yl)amino)phenyl)ureido)ethyl)benzamide]	0.35 nM
CCC(=O)N1c2ccccc2[C@H](Nc2ccc(NC(=O)N3CCN(C(=O)c4ccc(N[C@@H]5C[C@H](C)N(C(=O)CC)c6ccccc65)cc4)CC3)cc2)C[C@@H]1C (relative stereo) [Compound 6m, 4-(4-(((2S,4R)-2-Methyl-1-propionyl-1,2,3,4-tetrahydroquinolin-4-yl)amino)benzoyl)-N-(4-(((2S*,4R*)-2-methyl-1-propionyl-1,2,3,4-tetrahydroquinolin-4-yl)amino)phenyl)piperazine-1-carboxamide]	0.12 nM
CCC(=O)N1c2ccccc2[C@H](Nc2ccc(NC(=O)Cn3cc(-c4ccc(N[C@@H]5C[C@H](C)N(C(=O)CC)c6ccccc65)cc4)cn3)cc2)C[C@@H]1C (relative stereo) [Compound 6n, N-(4-(((2S*,4R*)-2-Methyl-1-propionyl-1,2,3,4-tetrahydroquinolin-4-yl)amino)phenyl)-2-(4-(4-(((2S,4R)-2-methyl-1-propionyl-1,2,3,4-tetrahydroquinolin-4-yl)amino)phenyl)-1H-pyrazol-1-yl)acetamide]	0.13 nM
CCC(=O)N1c2ccccc2[C@H](Nc2ccc(-n3cc(CNC(=O)N4CCC(N[C@@H]5C[C@H](C)N(C(=O)CC)c6ccccc65)CC4)nn3)cc2)C[C@@H]1C (relative stereo) [Compound 10b, 4-(((2S*,4R*)-2-Methyl-1-propionyl-1,2,3,4-tetrahydroquinolin-4-yl)amino)-N-((1-(4-(((2S,4R)-2-methyl-1-propionyl-1,2,3,4-tetrahydroquinolin-4-yl)amino)phenyl)-1H-1,2,3-triazol-4-yl)methyl)piperidine-1-carboxamide]	0.6 nM
CCC(=O)N1c2ccccc2[C@H](Nc2ccc(-c3cnn(CCNC(=O)N4CCC(N[C@@H]5C[C@H](C)N(C(=O)CC)c6ccccc65)CC4)c3)cc2)C[C@@H]1C (relative stereo) [Compound 10d, 4-(((2S*,4R*)-2-Methyl-1-propionyl-1,2,3,4-tetrahydroquinolin-4-yl)amino)-N-(2-(4-(4-(((2S,4R)-2-methyl-1-propionyl-1,2,3,4-tetrahydroquinolin-4-yl)amino)phenyl)-1H-pyrazol-1-yl)ethyl)piperidine-1-carboxamide]	3.42 nM
CCC(=O)N1c2ccccc2[C@H](Nc2ccc(NC(=O)C3CN(C(=O)N4CCC(N[C@@H]5C[C@H](C)N(C(=O)CC)c6ccccc65)CC4)C3)cc2)C[C@@H]1C (relative stereo) [Compound 10e, N-(4-(((2S*,4R*)-2-Methyl-1-propionyl-1,2,3,4-tetrahydroquinolin-4-yl)amino)phenyl)-1-(4-(((2S,4R)-2-methyl-1-propionyl-1,2,3,4-tetrahydroquinolin-4-yl)amino)piperidine-1-carbonyl)azetidine-3-carboxamide]	3.59 nM
CCC(=O)N1c2ccccc2[C@H](NCc2ccc(C(=O)N3CC(C(=O)Nc4ccc(N[C@@H]5C[C@H](C)N(C(=O)CC)c6ccccc65)cc4)C3)cc2)C[C@@H]1C (relative stereo) [Compound 10g, 1-(4-((((2S*,4R*)-2-Methyl-1-propionyl-1,2,3,4-tetrahydroquinolin-4-yl)amino)methyl)benzoyl)-N-(4-(((2S,4R)-2-methyl-1-propionyl-1,2,3,4-tetrahydroquinolin-4-yl)amino)phenyl)azetidine-3-carboxamide]	1.15 nM
